Assay results published in US20200062712A1, “ALDEHYDE TRAPPING COMPOUNDS AND USES THEREOF” (Aldeyra Therapeutics, Inc., priority 2016, published 2020).

Experiments:
[1] = Rate of formation of aldehyde (4-HNE) adducts, HPLC product peak over time; conditions: for Formation of Product 7 Hours (ranking, most effective to least) / Formation of Product 23 Hours (ranking, most effective to least): rank 1 = most effective; for Gradient (rate of product peak increase, formation of aldehyde adduct): best fit line
Protocol: It is not possible to conclude if this is the result of poor dissociation (from cyclodextrin) or poor interaction with the aldehyde. Best fit lines over this period give excellent fit to data. […] It can be used to relatively rank each of the samples examined, including NS2. The data were first evaluated over a 7 h time window.
Similar results were obtained when the window was extended to 23 h. However, two of the compounds yielded lower R. Sq. values in this context.
During this time period 3 of the 5 samples reached equilibrium.

[2] = test system: brain slices of B6.129-Aldh5a1tm1Kmg/J (SSADH null) mice; experiment: Ex vivo SSADH study: GABA and GHB content of brain slices and incubation media by HPLC; format: cell-based; conditions: 100 μg/mL, 24 hours incubation; SSADH null mouse brain slices
Protocol: Three and one half (3.5) days after birth, B6.129-Aldh5a1^tm1Kmg/J (SSADH null) mice and wild type (wt) littermates animals were sacrificed and brains were harvested. […] Brain slices and the incubation media (sup) were then analyzed by HPLC for GHB and GABA content.

[3] = Formation of 4-HNE adduct with exemplary compounds (AUC of adduct over time); conditions: one equivalent of 4-HNE and 2 equivalents of compound; performed twice
Protocol: The ability of exemplary compounds to react with 4-HNE and form the corresponding adduct was measured. All compounds were analyzed by HPLC at 254 nm for their purity prior to the reaction.
Area under the curve (AUC) of each adduct was plotted over time.

[4] = Consumption of 4-HNE over time, HPLC at 254 nm; conditions: for Consumption of 4-HNE 7 Hours (ranking, most effective to least): rank 1 = most effective; for Consumption of 4-HNE 23 Hours (ranking, most effective to least): small differences between samples ranking 1-4, essentially identical; for Decrease in HNE versus corresponding increase in adduct: one-week time period
Description: Five of 6 samples show consumption of 4-HNE. One sample (2-(3-aminoquinolin-2-yl)propan-2-ol) overlaps the 4-HNE HPLC peak using the current method. Best fit lines over this period give poorer fit to data than product formation data. Rate of 4-HNE consumption can be used as an approximation of binding kinetics.
The samples appeared to reach equilibrium, with the ongoing decrease in HNE amounts possibly due to another degradative pathway.

abcr−/− knockout mice = format: in vivo; conditions: 10 mg/kg IP daily for 56 days, p=0.011
Protocol: This experiment is designed to establish proof of concept that chronic intraperitoneal administration of a RAL-trap compound lowers the accumulation rate of A2E in B6:129SvEv-Abcr (abcr−/−) mice.
The study was performed with B6:129SvEv-Abcr (abcr−/−) mice. Treatment groups included 24 mice (males and females) per treatment condition. Each animal was treated with one of the following conditions: • Control: a commercially available compound known clinically to modulate retinal function in humans and known experimentally to form a Schiff base adduct with free RAL, both in vitro and in vivo in animal models. • Vehicle • Compound • Untreated
A third group of animals served as untreated controls and were sacrificed on Day 1 of the study.
The experiments described herein used a variety of biology and biochemistry services. If necessary, non-toxic doses of compounds of the invention, formulated for treatment with an eye drop or other formations, may be established, e.g., in the rabbit with an ocular irritation protocol. […] Light responses were characterized by ERG (Weng, et al., Cell 98:13, 1999). Intracellular A2E concentration of retinal RPE cell extracts were measured using an analytical method such as those described by Karan et al., 2005; Radu et al., 2003; and Parish et al., PNAS 95:14609, 1998.

[5] = 7 h time window, samples in cyclodextrin

SMILES	Formation of Product 7 Hours (ranking, most effective to least) [1]	Formation of Product 23 Hours (ranking, most effective to least) [1]	Gradient (rate of product peak increase, formation of aldehyde adduct) [1, 5]	Gradient (rate of product peak increase, formation of aldehyde adduct) ([1]; window extended to 23 h)	GABA content compared to the controls [2]	GHB content compared to the controls [2]	Formation of the corresponding adduct with 4-HNE [3]	Consumption of 4-HNE 7 Hours (ranking, most effective to least) [4]	Consumption of 4-HNE 23 Hours (ranking, most effective to least) [4]	Gradient (rate of 4-HNE consumption) ([4]; 23 h)	Gradient (rate of 4-HNE consumption) ([4]; first 7 h, analysis at 254 nm)	Decrease in HNE versus corresponding increase in adduct [4]	Reduction of formation of A2E compared with vehicle-treated controls (abcr−/− knockout mice)
CC(C)(O)c1nc2ccccc2cc1N [Compound I-1, 2-(3-aminoquinolin-2-yl)propan-2-ol]	1	1	(Gradient 3.68, R.	(Gradient 1.99, R.	decreased	decreased	formed the corresponding adduct with 4-HNE	–	–	–	–	–	–
CC(C)(O)c1nc2cccc(Cl)c2cc1N [Compound I-2, 2-(3-amino-5-chloroquinolin-2yl)propan-2-ol]	6	6	(Gradient 0.86, R.	(Gradient 0.44, R.	–	–	–	3	2	(Gradient −0.04, R.	(Gradient −0.05, R.	–	–
CC(C)(O)c1nc2cc(Cl)ccc2cc1N [Compound I-3, 2-(3-amino-7-chloroquinolin-2-yl)propan-2-ol]	3	3	(Gradient 2.02, R.	(Gradient 1.21, R.	–	–	–	2	1	(Gradient −0.05, R.	(Gradient −0.06, R.	decrease in HNE is greater than the corresponding increase in adduct	–
CC(C)(O)c1nc2c(Cl)cccc2cc1N [Compound I-4, 2-(3-amino-8-chloroquinolin-2-yl)propan-2-ol]	5	5	(Gradient 1.18, R.	(Gradient 0.81, R.	–	–	–	5	5	(Gradient −0.02, R.	(Gradient −0.01, R.	decrease in HNE is greater than the corresponding increase in adduct	–
CC(C)(O)c1nc2ccc(Br)cc2cc1N [Compound I-5, 2-(3-amino-6-bromoquinolin-2-yl)propan-2-ol]	4	4	(Gradient 1.63, R.	(Gradient 1.16, R.	–	–	–	4	4	(Gradient −0.04, R.	(Gradient −0.04, R.	–	–
CC(C)(O)c1nc2ccc(Cl)cc2cc1N [NS2, 2-(3-amino-6-chloroquinolin-2-yl)propan-2-ol, reference compound]	2	2	(Gradient 2.22, R.	(Gradient 1.33, R.	decreased	decreased	formed the corresponding adduct with 4-HNE	1	3	(Gradient −0.04, R.	(Gradient −0.15, R.	–	71%
